Assay [1] has as its system ms45 mutant. To be noted: transgenic ms45 maize with Ms45 under EcR-based switch; cited from earlier work.
The target of assay [2] is GAL4 DBD:CfEcR fusion protein (Choristoneura fumiferana). Nature of the assay: cell-based or functional assay.

The source of these data is patent US8115059B1, “Gene expression modulation system for use in plants and method for modulating gene expression in plants” (University of Kentucky Research Foundation, priority 2005, dated 2012).

With `COc1cccc(C(=O)NN(C(=O)c2cc(C)cc(C)c2)C(C)(C)C)c1C` [methoxyfenozide], the “restoration of male fertility” value in assay [1] is recorded as “able to restore male fertility”.
For the compound “VP16 AD:LmRXR triple mutant A62S:T81H:V123I (Lm-7) fusion protein (receptor)”, in assay [2], the methoxyfenozide concentration at maximum luciferase activity, two-hybrid gene switch, tobacco protoplasts (nM methoxyfenozide) came out at 80.
